Laboratory results published in PubChem BioAssay (NCI).
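Each compound was tested at five concentrations against cells in 96-well plates for 48 hours. The concentration for 50% growth inhibition is given as GI50. TGI: total growth inhibition.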

Experiments:
Assay in all cases: NCI tumour cell line growth inhibition, 48 h
CCRF-CEM leukemia = tested on: CCRF-CEM leukemia
HT29 colon = tested on: HT29 colon
IGROV1 ovarian = tested on: IGROV1 ovarian
K-562 leukemia = tested on: K-562 leukemia
LOX IMVI melanoma = tested on: LOX IMVI melanoma
M14 melanoma = tested on: M14 melanoma
OVCAR-5 ovarian = tested on: OVCAR-5 ovarian
OVCAR-8 ovarian = tested on: OVCAR-8 ovarian
RPMI-8226 leukemia = tested on: RPMI-8226 leukemia
HOP-92 NSCLC = tested on: HOP-92 NSCLC

Nc1cc(F)ccc1CC(=O)O
TGI (CCRF-CEM leukemia): > 100 µM
TGI (HT29 colon): > 100 µM
TGI (IGROV1 ovarian): > 100 µM
TGI (K-562 leukemia): > 100 µM
TGI (LOX IMVI melanoma): > 100 µM
TGI (M14 melanoma): > 100 µM
TGI (OVCAR-5 ovarian): > 100 µM
TGI (OVCAR-8 ovarian): > 100 µM
TGI (RPMI-8226 leukemia): > 100 µM

COc1ccc2c(c1)[n+]([O-])c(-c1ccc([N+](=O)[O-])cc1)c(N)[n+]2[O-]
TGI (CCRF-CEM leukemia): > 100 µM
TGI (HOP-92 NSCLC): > 100 µM
TGI (HT29 colon): > 100 µM
TGI (IGROV1 ovarian): > 100 µM
TGI (K-562 leukemia): > 100 µM
TGI (M14 melanoma): > 100 µM
TGI (OVCAR-5 ovarian): > 100 µM
TGI (OVCAR-8 ovarian): > 100 µM

COc1ccccc1NC(=O)C1=C(C)NC(C)=C(C(=O)Nc2ccccc2OC)C1C1=CC=COC1
TGI (CCRF-CEM leukemia): 48.4 µM
TGI (HOP-92 NSCLC): 83.8 µM
TGI (HT29 colon): 62.7 µM
TGI (IGROV1 ovarian): > 100 µM
TGI (K-562 leukemia): 26 µM
TGI (M14 melanoma): 22.5 µM
TGI (OVCAR-5 ovarian): > 100 µM
TGI (OVCAR-8 ovarian): 40.4 µM
TGI (RPMI-8226 leukemia): 50.1 µM

C=C=C(C(=O)OC)S(=O)c1ccccc1[N+](=O)[O-] (centres undefined)
TGI (CCRF-CEM leukemia): 77 µM
TGI (HT29 colon): > 100 µM
TGI (IGROV1 ovarian): > 100 µM
TGI (K-562 leukemia): > 100 µM
TGI (M14 melanoma): > 100 µM
TGI (OVCAR-5 ovarian): > 100 µM
TGI (OVCAR-8 ovarian): > 100 µM
TGI (RPMI-8226 leukemia): > 100 µM

CN(C)c1ccc(/C=C/C(=O)[O-])cc1.CN(C)c1ccc(/C=C/C(=O)[O-])cc1.[Cu+2]
TGI (CCRF-CEM leukemia): > 100 µM
TGI (HT29 colon): > 100 µM
TGI (IGROV1 ovarian): > 100 µM
TGI (K-562 leukemia): > 100 µM
TGI (LOX IMVI melanoma): > 70.8 µM
TGI (M14 melanoma): > 100 µM
TGI (OVCAR-5 ovarian): 60.3 µM
TGI (OVCAR-8 ovarian): > 100 µM
TGI (RPMI-8226 leukemia): > 100 µM

O=C1CC(c2c(-c3ccccc3)[nH]c3ccccc23)C(=O)N1 (centres undefined)
TGI (CCRF-CEM leukemia): > 100 µM
TGI (HT29 colon): > 100 µM
TGI (IGROV1 ovarian): > 100 µM
TGI (K-562 leukemia): > 100 µM
TGI (M14 melanoma): > 100 µM
TGI (OVCAR-5 ovarian): > 100 µM
TGI (OVCAR-8 ovarian): > 100 µM
TGI (RPMI-8226 leukemia): > 100 µM

COc1cccc2ccc(C(=O)c3ccccc3)nc12
TGI (CCRF-CEM leukemia): > 100 µM
TGI (IGROV1 ovarian): > 100 µM
TGI (K-562 leukemia): > 100 µM
TGI (LOX IMVI melanoma): > 100 µM
TGI (M14 melanoma): > 100 µM
TGI (OVCAR-5 ovarian): > 100 µM
TGI (OVCAR-8 ovarian): > 100 µM
TGI (RPMI-8226 leukemia): > 100 µM

C[n+]1c(/C=C/c2c[nH]c3ccccc23)ccc2ccccc21
GI50 (CCRF-CEM leukemia): 5.59 µM
TGI (CCRF-CEM leukemia): 45 µM
GI50 (HT29 colon): 5.06 µM
TGI (HT29 colon): 27.5 µM
GI50 (IGROV1 ovarian): 11 µM
TGI (IGROV1 ovarian): 39.4 µM
GI50 (K-562 leukemia): 2.32 µM
TGI (K-562 leukemia): 18.1 µM
GI50 (LOX IMVI melanoma): 11 µM
TGI (LOX IMVI melanoma): 23.1 µM
GI50 (M14 melanoma): 14 µM
TGI (M14 melanoma): 33.2 µM
GI50 (OVCAR-5 ovarian): 18 µM
TGI (OVCAR-5 ovarian): 59.1 µM
GI50 (OVCAR-8 ovarian): 4.24 µM
TGI (OVCAR-8 ovarian): 28.9 µM
GI50 (RPMI-8226 leukemia): 5.63 µM
TGI (RPMI-8226 leukemia): 28.2 µM

c1ccc([CH2][Sn]([CH2]c2ccccc2)([O]c2cccc3cccnc23)[O]c2cccc3cccnc23)cc1
GI50 (HOP-92 NSCLC): 1.19 µM
TGI (HOP-92 NSCLC): 2.46 µM
GI50 (HT29 colon): 0.139 µM
TGI (HT29 colon): 0.361 µM
GI50 (IGROV1 ovarian): 0.403 µM
TGI (IGROV1 ovarian): 1.23 µM
GI50 (LOX IMVI melanoma): 0.53 µM
TGI (LOX IMVI melanoma): 1.65 µM
GI50 (M14 melanoma): 0.46 µM
TGI (M14 melanoma): 1.75 µM
GI50 (OVCAR-5 ovarian): 0.338 µM
TGI (OVCAR-5 ovarian): 1.06 µM
GI50 (OVCAR-8 ovarian): 0.515 µM
TGI (OVCAR-8 ovarian): 1.59 µM

COc1ccccc1C1C(Cl)C(=O)N1n1cnc2ccccc2c1=O (centres undefined)
TGI (CCRF-CEM leukemia): > 100 µM
TGI (HT29 colon): > 100 µM
TGI (IGROV1 ovarian): > 100 µM
TGI (K-562 leukemia): > 100 µM
TGI (LOX IMVI melanoma): > 100 µM
TGI (M14 melanoma): > 100 µM
TGI (OVCAR-5 ovarian): > 100 µM
TGI (OVCAR-8 ovarian): > 100 µM
TGI (RPMI-8226 leukemia): > 100 µM

Nc1ccccc1NC(=O)c1ccc(CNc2nccc(-c3cccnc3)n2)cc1
GI50 (CCRF-CEM leukemia): 0.742 µM
TGI (CCRF-CEM leukemia): > 100 µM
GI50 (HOP-92 NSCLC): 0.206 µM
TGI (HOP-92 NSCLC): 2.7 µM
GI50 (HT29 colon): 0.364 µM
TGI (HT29 colon): 6.28 µM
GI50 (IGROV1 ovarian): 2.36 µM
TGI (IGROV1 ovarian): > 27.7 µM
GI50 (K-562 leukemia): 0.358 µM
TGI (K-562 leukemia): > 100 µM
GI50 (M14 melanoma): 1.03 µM
TGI (M14 melanoma): 4.18 µM
GI50 (OVCAR-5 ovarian): 0.55 µM
TGI (OVCAR-5 ovarian): > 48 µM
GI50 (OVCAR-8 ovarian): 0.541 µM
TGI (OVCAR-8 ovarian): > 100 µM
GI50 (RPMI-8226 leukemia): 0.5 µM
TGI (RPMI-8226 leukemia): 14.6 µM

COC1OC(CO)C(O)C(OC(C)=O)C1NC(=O)N(CCCl)N=O (centres undefined)
TGI (CCRF-CEM leukemia): > 100 µM
TGI (HT29 colon): > 100 µM
TGI (IGROV1 ovarian): > 100 µM
TGI (K-562 leukemia): > 100 µM
TGI (LOX IMVI melanoma): > 100 µM
TGI (M14 melanoma): > 100 µM
TGI (OVCAR-5 ovarian): > 100 µM
TGI (OVCAR-8 ovarian): > 100 µM

Oc1ccc([Te]CCNCC[Te]c2ccc(O)cc2)cc1
TGI (CCRF-CEM leukemia): > 100 µM
TGI (HT29 colon): > 100 µM
TGI (IGROV1 ovarian): > 100 µM
TGI (K-562 leukemia): > 100 µM
TGI (LOX IMVI melanoma): 43 µM
TGI (M14 melanoma): 55.3 µM
TGI (OVCAR-5 ovarian): 37.7 µM
TGI (OVCAR-8 ovarian): 48 µM
TGI (RPMI-8226 leukemia): > 100 µM

Cc1cc([N+](=O)[O-])ccc1NC(=O)C(=O)C(C(=O)c1ccccc1-c1ccccc1)C1OC(=O)c2ccccc21 (centres undefined)
TGI (CCRF-CEM leukemia): > 100 µM
TGI (HOP-92 NSCLC): 34 µM
TGI (HT29 colon): 41.9 µM
TGI (IGROV1 ovarian): 67.8 µM
TGI (K-562 leukemia): 89.3 µM
TGI (M14 melanoma): 27.4 µM
TGI (OVCAR-5 ovarian): 28.9 µM
TGI (OVCAR-8 ovarian): 77.1 µM
TGI (RPMI-8226 leukemia): 98 µM

CN1C(=O)CCC2[C@@H]3CC=C4C[C@@H](O)CC[C@]4(C)C3CC[C@@]21C (some centres undefined)
TGI (CCRF-CEM leukemia): > 100 µM
TGI (HT29 colon): > 100 µM
TGI (IGROV1 ovarian): > 100 µM
TGI (K-562 leukemia): > 100 µM
TGI (M14 melanoma): > 100 µM
TGI (OVCAR-5 ovarian): > 100 µM
TGI (OVCAR-8 ovarian): > 100 µM
TGI (RPMI-8226 leukemia): > 100 µM

Cc1ccc(S(=O)(=O)c2ccc(NC(=O)SCCC(=O)O)cc2)cc1
TGI (CCRF-CEM leukemia): > 100 µM
TGI (HT29 colon): > 100 µM
TGI (IGROV1 ovarian): > 100 µM
TGI (K-562 leukemia): > 100 µM
TGI (LOX IMVI melanoma): > 100 µM
TGI (M14 melanoma): > 100 µM
TGI (OVCAR-5 ovarian): > 100 µM
TGI (OVCAR-8 ovarian): > 100 µM
TGI (RPMI-8226 leukemia): > 100 µM

NCCCNc1nc2ccccc2c2c(=O)c3cc(F)cc(F)c3sc12
GI50 (HOP-92 NSCLC): 1.65 µM
TGI (HOP-92 NSCLC): 12.6 µM
GI50 (M14 melanoma): 1.79 µM
TGI (M14 melanoma): 3.3 µM
GI50 (OVCAR-5 ovarian): 1.6 µM
TGI (OVCAR-5 ovarian): 3.03 µM
GI50 (OVCAR-8 ovarian): 2.1 µM
TGI (OVCAR-8 ovarian): 5.14 µM
